Results: US20230086703A1, “N-(4-(5-chloropyridin-3-yl)phenyl)-2-(2-(cyclopropanesulfonamido)pyrimidin-4-yl) butanamide derivatives and related compounds as human CTPS1 inhibitors for the treatment of proliferative diseases” (Step Pharma S.A.S., priority 2019, published 2023)
Several values for one entry are separate records, joined by “and”; a condition that tells them apart may be missing. Equal values may be shown once.

Molecular target: T1, human CTPS1 (Homo sapiens, UniProt P17812)
T1 construct: FLAG (with GG linker); His8 (with GG linker); purchased Proteros biostructures GmbH
T1 sequence (P17812 1-591): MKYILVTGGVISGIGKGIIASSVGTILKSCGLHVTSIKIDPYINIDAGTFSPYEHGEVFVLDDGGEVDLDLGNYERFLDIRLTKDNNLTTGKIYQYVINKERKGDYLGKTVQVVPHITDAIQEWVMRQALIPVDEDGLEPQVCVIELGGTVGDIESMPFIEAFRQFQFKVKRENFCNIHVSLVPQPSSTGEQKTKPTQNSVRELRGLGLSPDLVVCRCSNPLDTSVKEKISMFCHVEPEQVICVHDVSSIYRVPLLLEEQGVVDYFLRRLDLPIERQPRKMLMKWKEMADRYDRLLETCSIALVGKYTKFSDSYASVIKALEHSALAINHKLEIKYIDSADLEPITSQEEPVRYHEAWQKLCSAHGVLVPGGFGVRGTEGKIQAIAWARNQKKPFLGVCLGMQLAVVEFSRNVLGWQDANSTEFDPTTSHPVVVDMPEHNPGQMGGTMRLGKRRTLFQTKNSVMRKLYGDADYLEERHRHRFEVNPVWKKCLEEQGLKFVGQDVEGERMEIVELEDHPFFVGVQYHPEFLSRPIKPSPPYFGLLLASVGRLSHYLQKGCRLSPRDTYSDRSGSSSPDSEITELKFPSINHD
Experiment: Human CTPS1 enzyme inhibition, ADP-Glo Max assay
Format: biochemical
Details: ADP-Glo Max assay; Table 10; read-out: Human CTPS1 Enzyme Inhibition, IC50 grouped by potency range (CTPS1)
Outline: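 Read-out is ADP-Glo Max luminescence: residual ATP depleted (60 min), then produced ADP converted back to ATP for luciferase detection (60 min). Beforehand, protein and compound were mixed for 10 min at 25 °C in Tris buffer pH 8.0 with MgCl2, Tween-20 and 2 mM L-cysteine. Results expressed as percentage inhibition per concentration.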

SMILES | IC50
CC(C)(C(=O)Nc1ccc(-c2cncc(C#N)n2)cc1)c1csc(NS(=O)(=O)C2CC2)n1 [T154, N-(4-(6-cyanopyrazin-2-yl)phenyl)-2-(2-(cyclopropanesulfonamido)thiazol-4-yl)-2-methylpropanamide] | 100 to 1000 nM
CCC(CC)(C(=O)Nc1ccc(-c2cncc(C#N)n2)cc1)c1csc(NS(=O)(=O)C2CC2)n1 [T161, N-(4-(6-cyanopyrazin-2-yl)phenyl)-2-(2-(cyclopropanesulfonamido)thiazol-4-yl)-2-ethylbutanamide] | 100 to 1000 nM and 1000 to 10000 nM
CC(C)(C(=O)Nc1ccc(-c2cccnc2)cc1)c1csc(NS(C)(=O)=O)n1 [T163, 2-methyl-2-(2-(methylsulfonamido)thiazol-4-yl)-N-(4-(pyridin-3-yl)phenyl)propanamide] | 100 to 1000 nM
CN(C(=O)C(C)(C)c1csc(NS(=O)(=O)C2CC2)n1)c1ccc(-c2cccnc2)cc1 [T164, 2-(2-(cyclopropanesulfonamido)thiazol-4-yl)-N,2-dimethyl-N-(4-(pyridin-3-yl)phenyl)propanamide] | 1000 to 10000 nM
O=C(Cc1csc(NS(=O)(=O)C2CC2)n1)Nc1ccc(-c2cccnc2)c(F)c1F [T188, 2-(2-(cyclopropanesulfonamido)thiazol-4-yl)-N-(2,3-difluoro-4-(pyridin-3-yl)phenyl)acetamide] | 100 to 1000 nM
O=C(Cc1csc(NS(=O)(=O)C2CC2)n1)Nc1ccc(-c2cccnc2)cc1F [T216, 2-(2-(cyclopropanesulfonamido)thiazol-4-yl)-N-(2-fluoro-4-(pyridin-3-yl)phenyl)acetamide] | 100 to 1000 nM
CC(C)(C(=O)Nc1ncc(-c2cccnc2)cc1F)c1csc(NS(=O)(=O)C2CC2)n1 [T227, 2-(2-(cyclopropanesulfonamido)thiazol-4-yl)-N-(5-fluoro-[3,3′-bipyridin]-6-yl)-2-methylpropanamide] | 100 to 1000 nM
CC(C)(C(=O)Nc1ncc(-c2cncc(F)c2)cc1F)c1csc(NS(=O)(=O)C2CC2)n1 [T230, 2-(2-(cyclopropanesulfonamido)thiazol-4-yl)-N-(5,5′-difluoro-[3,3′-bipyridin]-6-yl)-2-methylpropanamide] | < 100 nM
Cc1cc(Cl)cc(-c2ccc(NC(=O)C(C)(C)c3csc(NS(=O)(=O)C4CC4)n3)nc2)c1 [T231, N-(5-(3-chloro-5-methylphenyl)pyridin-2-yl)-2-(2-(cyclopropanesulfonamido)thiazol-4-yl)-2-methylpropanamide] | 1000 to 10000 nM
COc1cccc(-c2ccc(NC(=O)C(C)(C)c3csc(NS(=O)(=O)C4CC4)n3)nc2)c1 [T232, 2-(2-(cyclopropanesulfonamido)thiazol-4-yl)-N-(5-(3-methoxyphenyl)pyridin-2-yl)-2-methylpropanamide] | 100 to 1000 nM
COc1cc(F)cc(-c2ccc(NC(=O)C(C)(C)c3csc(NS(=O)(=O)C4CC4)n3)nc2)c1 [T233, 2-(2-(cyclopropanesulfonamido)thiazol-4-yl)-N-(5-(3-fluoro-5-methoxyphenyl)pyridin-2-yl)-2-methylpropanamide] | 1000 to 10000 nM
COc1cc(OC)cc(-c2ccc(NC(=O)C(C)(C)c3csc(NS(=O)(=O)C4CC4)n3)nc2)c1 [T234, 2-(2-(cyclopropanesulfonamido)thiazol-4-yl)-N-(5-(3,5-dimethoxyphenyl)pyridin-2-yl)-2-methylpropanamide] | 1000 to 10000 nM
CC(C)(C(=O)Nc1ccc(-c2cccc(C(F)(F)F)c2)cn1)c1csc(NS(=O)(=O)C2CC2)n1 [T235, 2-(2-(cyclopropanesulfonamido)thiazol-4-yl)-2-methyl-N-(5-(3-(trifluoromethyl)phenyl)pyridin-2-yl)propanamide] | 100 to 1000 nM
CC(C)(C(=O)Nc1ccc(-c2cccc(OC(F)(F)F)c2)cn1)c1csc(NS(=O)(=O)C2CC2)n1 [T236, 2-(2-(cyclopropanesulfonamido)thiazol-4-yl)-2-methyl-N-(5-(3-(trifluoromethoxy)phenyl)pyridin-2-yl)propanamide] | 100 to 1000 nM
CC(C)(O)c1cccc(-c2ccc(NC(=O)C(C)(C)c3csc(NS(=O)(=O)C4CC4)n3)nc2)c1 [T237, 2-(2-(cyclopropanesulfonamido)thiazol-4-yl)-N-(5-(3-(2-hydroxypropan-2-yl)phenyl)pyridin-2-yl)-2-methylpropanamide] | 1000 to 10000 nM

Now from value to molecule:

IC50 | SMILES
< 100 nM | CC(C)(C(=O)Nc1ccc(-c2cncc(Cl)n2)cc1)c1csc(NS(=O)(=O)C2CC2)n1 [T155, N-(4-(6-chloropyrazin-2-yl)phenyl)-2-(2-(cyclopropanesulfonamido)thiazol-4-yl)-2-methylpropanamide]
< 100 nM | CCC(CC)(C(=O)Nc1ccc(-c2cncc(F)c2)cc1)c1csc(NS(=O)(=O)C2CC2)n1 [T156, 2-(2-(cyclopropanesulfonamido)thiazol-4-yl)-2-ethyl-N-(4-(5-fluoropyridin-3-yl)phenyl)butanamide]
< 100 nM | CCCOc1cncc(-c2ccc(NC(=O)C(C)(C)c3csc(NS(=O)(=O)C4CC4)n3)cc2)c1 [T157, 2-(2-(cyclopropanesulfonamido)thiazol-4-yl)-2-methyl-N-(4-(5-propoxypyridin-3-yl)phenyl)propanamide]
< 100 nM | CC(C)Oc1cncc(-c2ccc(NC(=O)C(C)(C)c3csc(NS(=O)(=O)C4CC4)n3)cc2)c1 [T158, 2-(2-(cyclopropanesulfonamido)thiazol-4-yl)-N-(4-(5-isopropoxypyridin-3-yl)phenyl)-2-methylpropanamide]
< 100 nM | CC(C)Oc1cncc(-c2ccc(NC(=O)C(C)(C)c3csc(NS(=O)(=O)C4CC4)n3)c(F)c2)c1 [T159, 2-(2-(cyclopropanesulfonamido)thiazol-4-yl)-N-(2-fluoro-4-(5-isopropoxypyridin-3-yl)phenyl)-2-methylpropanamide]
< 100 nM | COc1cc(-c2cccnc2)ccc1NC(=O)Cc1csc(NS(=O)(=O)C2CC2)n1 [T215, 2-(2-(cyclopropanesulfonamido)thiazol-4-yl)-N-(2-methoxy-4-(pyridin-3-yl)phenyl)acetamide]
< 100 nM | COc1cncc(-c2ccc(NC(=O)C(C)(C)c3csc(NS(=O)(=O)C4CC4)n3)nc2)c1 [T224, 2-(2-(cyclopropanesulfonamido)thiazol-4-yl)-N-(5′-methoxy-[3,3′-bipyridin]-6-yl)-2-methylpropanamide]
< 100 nM | CC(C)(C(=O)Nc1ccc(-c2cncc(Cl)c2)cn1)c1csc(NS(=O)(=O)C2CC2)n1 [T225, N-(5′-chloro-[3,3′-bipyridin]-6-yl)-2-(2-(cyclopropanesulfonamido)thiazol-4-yl)-2-methylpropanamide]
< 100 nM | CC(C)(C(=O)Nc1ccc(-c2cncc(C#N)c2)cn1)c1csc(NS(=O)(=O)C2CC2)n1 [T226, N-(5′-cyano-[3,3′-bipyridin]-6-yl)-2-(2-(cyclopropanesulfonamido)thiazol-4-yl)-2-methylpropanamide]
< 100 nM | CC(C)(C(=O)Nc1ncc(-c2cncc(C#N)c2)cc1F)c1csc(NS(=O)(=O)C2CC2)n1 [T228, N-(5′-cyano-5-fluoro-[3,3′-bipyridin]-6-yl)-2-(2-(cyclopropanesulfonamido)thiazol-4-yl)-2-methylpropanamide]
< 100 nM | CC(C)(C(=O)Nc1ncc(-c2cncc(Cl)c2)cc1F)c1csc(NS(=O)(=O)C2CC2)n1 [T229, N-(5′-chloro-5-fluoro-[3,3′-bipyridin]-6-yl)-2-(2-(cyclopropanesulfonamido)thiazol-4-yl)-2-methylpropanamide]
